In patent US20250170151A1 (REMEDY PHARMACEUTICALS, INC., priority 2022, published 2025):
Values after ≈ are worked out from the molar mass of the structure shown. Like-named read-outs stand apart in the source and are kept apart here.

Legend:
[1] = Mock IV infusion: sorption of glyburide to administration sets; type: physicochemical; conditions: for initial drop in the glyburide concentration: PVC administration sets
Source text: Thus, there was significant unpredictability in how much of the drug product would be administered to a given patient at any given time depending on various factors. […] At lower NaOH:GLY ratios, a longer period of time is required for the drug concentration to recover.

[2] = Studies with phosphate and glycine buffering agents (Example 3); type: physicochemical; conditions: buffering agents phosphate (pKa 7.21) and glycine (pKa 9.8)
Source text: For example, and without limiting the foregoing disclosure, the buffering agent may be Tris, lysine, arginine, an ethylenediamine, an imidazole, a 4-(2-Hydroxyethyl)morpholine, a triethanolamine, a glucamine, a deanol (dimethylaminoethanol), phosphate, phosphate buffered saline (PBS), or a combination thereof.

[3] = Stability of glyburide after reconstitution with Tris buffer, HPLC (Example 6); type: physicochemical; conditions: for Glyburide content (mg/mL) at T0 h / Glyburide content (mg/mL) at T2 h / Glyburide content (mg/mL) at T24 h: +50% excess NaOH, 0.22 um filtered, HPLC; for Recon vial pH: lyophilized formulation +50% excess NaOH
Method: The contents of the vial were dissolved by gentle shaking and pH after reconstitution was measured. About 1 mL of sample was withdrawn at 0, 1, 2 and 24 hours post reconstitution and filtered through 0.22 um membrane filters and analyzed by HPLC.

[4] = Glyburide solubility in intravenous dosing solutions; type: physicochemical
physchem = test: physchem
Method: An additional critical requirement was that, after reconstitution, the reconstituted formulation must remain sufficiently stable and soluble.
The vial pH after reconstitution (20 ml) can be used to ensure that the appropriate compounding pH was achieved during manufacture. The target reconstitution pH is 9.8 with a range of 9.2-10.2. In some aspects, the concentration after reconstitution is 0.3 mg/ml (6 mg/20 ml).

[5] = cited from earlier work
[6] = aqueous buffer, cited from earlier work
[7] = Drug reconstitution and dilution experiments (Example 2); conditions: vial reconstitution pH above 10.2; 6 mg vial, 20 ml WFI, 500 ml saline bag
Method: A maximum final dosing pH of 9.2 (after infusion, there is a slight drop in pH to ˜9, which is the maximum pH of a solution that can be safely infused to a patient) was used as an upper limit constraint on the reconstitution solution and dilution solution pHs. Drug reconstitution and dilution experiments were carried out.

[8] = recon diluent 10 mM tris pH 7.99
[9] = recon diluent 10 mM tris pH 8.25

Which “pH in the final dosing solution” value ([1]; drug product with NaOH:GLY molar ratio of 13.8 reconstituted into saline with a pH of 7) does the source give for `COc1ccc(Cl)cc1C(=O)NCCc1ccc(S(=O)(=O)NC(=O)NC2CCCCC2)cc1` [glyburide, 5-chloro-N-(4-[N-(cyclohexylcarbamoyl)sulfamoyl]phenethyl)-2-methoxybenzamide] here?
Its value is 9.9.

And the “drug sorption to administration components made of PVC or PUR” value ([1]; formulation of the present disclosure with the specific buffering agents)?
Its value is “eliminated”.

What about the “dip in glyburide concentration” value ([1]; formulations of the present disclosure, diluted (final dosing) pH less than 7.8, PVC administration sets (FIG. 3)) of the same compound?
Its value is “at least 10%”.

What about the “initial drop in the glyburide concentration” value ([1]; prior art formulation, NaOH:GLY ratio 3:1, 1 L saline bag) of the same compound?
The value was “about 40%”.

What about the “initial drop in the glyburide concentration” value ([1]; prior art formulations with varying NaOH:GLY molar ratios, 1 L saline bag) of the same compound?
The value was “at least 10%”.

And the “pH of reconstituted formulation” value ([1]; prior art glyburide formulations with sufficiently high base to glyburide ratios)?
The value was about 10.

And the “sorption in mock infusion test (FIG. 1)” value ([1]; prior art glyburide formulations, various administration materials)?
Its value is “significant sorption immediately at the start of infusion”.

What about the “binding to filter components” value ([1]; prior art intravenous glyburide formulations, all filter components (data not shown)) of the same compound?
The value was “readily and extensively binds to all filter components”.

What about the “prevention of sorption to medical materials by buffering agent” value [2] of the same compound?
Its value is “did not prevent sorption to medical materials”.

And the “stabilization of glyburide by buffering agent” value [2]?
Its value is “did not effectively stabilize glyburide”.

And the “Glyburide content (mg/mL) at T0 h” value [3, 8]?
The value was 0.29 mg/mL.

And the “Glyburide content (mg/mL) at T2 h” value [3, 8]?
Its value is 0.29 mg/mL.

What about the “Glyburide content (mg/mL) at T24 h” value [3, 8] of the same compound?
The value was 0.29 mg/mL.

And the “Glyburide content (mg/mL) at T0 h” value [3, 9]?
Its value is 0.29 mg/mL.

And the “Glyburide content (mg/mL) at T2 h” value [3, 9]?
Its value is 0.29 mg/mL.

And the “Glyburide content (mg/mL) at T24 h” value [3, 9]?
Its value is 0.29 mg/mL.

And the “Recon vial pH” value ([3]; recon diluent 20 mL 10 mM tris pH 7.99)?
Its value is 8.65.

What about the “Recon vial pH” value ([3]; recon diluent 20 mL 10 mM tris pH 8.25) of the same compound?
Its value is 8.78.

And the “precipitation of glyburide after reconstitution” value ([3]; recon pH of 8.65 and 8.78, through 24 hours)?
The value was “No precipitation”.

What about the Solubility ([4]; formulations of the present disclosure) of the same compound?
Its Solubility is over 15 µg/mL.

And the Solubility ([4]; prior art intravenous glyburide dosing solutions)?
The Solubility was under 5.7 µg/mL.

And the Solubility (physchem; pH 9.25, aqueous buffer)?
Its Solubility is 480 µg/mL (≈ 972 µM).

What about the Solubility (physchem; pH 9.37, aqueous buffer) of the same compound?
The Solubility was 720 µg/mL (≈ 1460 µM).

What about the Solubility ([5]; all measured pH values from pH 4 to pH 9, Britton-Robinson buffer) of the same compound?
The Solubility was “below 1 mg/mL”.

What about the Solubility ([5]; pH 4, 27° C., Britton-Robinson buffer) of the same compound?
Its Solubility is 0.004 mg/mL (≈ 8.1 µM).

And the Solubility ([5]; pH 6, 27° C., Britton-Robinson buffer)?
The Solubility was 0.005 mg/mL (≈ 10.1 µM).

What about the Solubility ([5]; pH 7, 27° C., Britton-Robinson buffer) of the same compound?
The Solubility was 0.011 mg/mL (≈ 22.3 µM).

What about the Solubility ([5]; pH 8, 27° C., Britton-Robinson buffer) of the same compound?
The Solubility was 0.080 mg/mL (≈ 162 µM).

What about the Solubility ([5]; pH 9, 27° C., Britton-Robinson buffer) of the same compound?
Its Solubility is 0.600 mg/mL (≈ 1210 µM).

And the Solubility ([6]; pH 2, 37° C.)?
Its Solubility is 0.07 µg/mL (≈ 0.142 µM).

And the Solubility ([6]; pH 3, 37° C.)?
Its Solubility is 0.06 µg/mL (≈ 0.121 µM).

What about the Solubility ([6]; pH 5, 37° C.) of the same compound?
Its Solubility is 0.1 µg/mL (≈ 0.202 µM).

What about the Solubility ([6]; pH 6, 37° C.) of the same compound?
The Solubility was 0.62 µg/mL (≈ 1.26 µM).

What about the Solubility ([6]; pH 7, 37° C.) of the same compound?
Its Solubility is 5.62 µg/mL (≈ 11.4 µM).

And the Solubility ([6]; pH 8, 37° C.)?
The Solubility was 51.2 µg/mL (≈ 104 µM).

And the Solubility ([6]; pH 9, 37° C.)?
The Solubility was 98.6 µg/mL (≈ 200 µM).

What about the Solubility ([6]; pH 11.8, 37° C.) of the same compound?
The Solubility was 531.6 µg/mL (≈ 1080 µM).

And the “final IV bag pH” value [7]?
Its value is “greater than 9.2”.
